Patent US20240131034A1, “METHODS OF TREATING STAPHYLOCOCCUS AUREUS BACTEREMIA INFECTIONS” (Basilea Pharmaceutica International AG, Allschwil, priority 2022, published 2024)
Entries after “also recorded” stand apart in the source; their conditions may differ.

Tests used:
S. aureus = assay: On-treatment MIC shifts and MIC vs clinical failure, blood S. aureus; type: cell-based, Staphylococcus aureus; settings: MIC of the drug received, daptomycin: three patients (two MSSA, one MRSA)
Text: (§1) The distribution of ceftobiprole, daptomycin, and aztreonam MICs, including MIC50, MIC90, and MIC range, for blood S. aureus, MRSA, and MSSA, was tabulated for the mITT and CE populations. The shifts in ceftobiprole, daptomycin, and aztreonam MIC results from baseline to PTE, and the shifts in ceftobiprole, daptomycin, and aztreonam MIC results from baseline to the maximum value post-baseline by baseline infecting organisms (i.e., pathogens), were presented overall and by geographical region in the mITT and CE populations.

MRSA = assay: MIC of baseline blood S. aureus isolates: MRSA; type: cell-based, Staphylococcus aureus; settings: MRSA samples
Text: as §1

MSSA = assay: MIC of baseline blood S. aureus isolates: MSSA; type: cell-based, Staphylococcus aureus; settings: MSSA samples
Text: as §1

[1] = system: Staphylococcus aureus bacteremia (SAB); assay: Phase 3 study of ceftobiprole vs daptomycin ± aztreonam in complicated SAB (NCT03138733): efficacy; type: in vivo, human; settings: for DRC-assessed SAB relapses: 4 patients on daptomycin (2 MSSA, 2 MRSA), 2 patients on ceftobiprole (all MSSA); for Overall success rate in patients with high vancomycin MICs of 2-8 mg/L: 16 patients (8 MRSA, 8 MSSA), 7/8 vs 4/8; for Adjusted difference ceftobiprole − daptomycin ± aztreonam (95% CI): DRC overall success at PTE (mITT): Cochran-Mantel-Haenszel weights, adjusted for dialysis status and prior antibacterial treatment use; for Non-inferiority for overall success at PTE (70 days post-randomization): pre-specified −15% non-inferiority margin
[2] = type: in vivo
Procedure: Safety population: The safety population consisted of all randomized patients who received any amount/dose of study medication. Patients in the safety population were analyzed according to the first medication actually received.
Ceftohiprole 500 mg (as 667 mg ceftobiprole medocaril) was administered as a 2-hour intravenous (i.v.) infusion every 6 hours in the first 8 days, and every 8 hours from Day 9 onwards (with dose and/or schedule adjusted in patients with renal impairment). Daptomycin weight-based at 6 mg/kg (up to 10 mg/kg in accordance with institutional standards) administered as 0.5-hour i.v. infusion every 24 hours (with schedule adjusted in patients with renal impairment). Optional aztreonam 1000 mg fixed dose administered as 0.5-hour i.v. infusion every 24 hours (with dose adjusted in patients with renal impairment). The target treatment duration in Part I was 21-28 days of study medication, with a maximum treatment duration of 28 days. The maximum treatment duration In Part 2 was 42 days.
• 1. All-cause mortality assessed at Day 70 (PTE visit) in the mITT population. • 2. Microbiological cradication assessed by the DRC at Day 70 (PTE visit) in the mITT population. • 3. The overall success rate in the ITT, mITT, and CE populations; • a) at the BOT and PTE (ITT and CE populations only) visits • b) at the EOT and PTE visits, for RIE vs non-IE SAB • c) at the EOT and PTE visits, by renal-function status • 4. Development of new metastatic foci or other complications of SAB after Day 7 assessed in the mITT and CE populations. • 5. Time to S. aureus bloodstream clearance, defined as the elapsed time (days) from randomization to bloodstream clearance, with bloodstream clearance defined as the occurrence of two consecutive study days with blood-culture-negative assessments for S. aureus. • 6. Safety and tolerability based on incidence, type, severity, and relationship to study medication of AEs; and changes in laboratory tests • 7. Pharmacokinetics of ceftobiprole in the PK population

[3] = prolonged (>4 weeks) ceftobiprole treatment; cited from earlier work
[4] = system: acute bacterial skin and soft tissue infections; settings: TARGET Phase 3; Overcash et al.; cited from earlier work
[5] = mITT, Cochran-Mantel-Haenszel adjusted
[6] = mITT, Cochran-Mantel-Haenszel adjusted, listed as ceftobiprole
[7] = mITT, S. aureus (overall), bloodstream clearance = two consecutive study days with negative blood culture

In the case of `Nc1nc(/C(=N/O)C(=O)N[C@@H]2C(=O)N3C(C(=O)O)=C(/C=C4\CCN([C@@H]5CCNC5)C4=O)CS[C@H]23)ns1` [Ceftobiprole], the “On-treatment increases in MICs by ≥four-fold, patients” value (S. aureus; listed as cefobiprole) was “No on-treatment increases”, the “Isolates at MIC 0.5 mg/L” value (MRSA) was 14% and the “Isolates at MIC 1 mg/L” value (MRSA) was 58%. The “Isolates at MIC 2 mg/L” value (MRSA) was 28%, the “Isolates at MIC 0.25 mg/L” value (MSSA) was 51% and the “Isolates at MIC 0.5 mg/L” value (MSSA) was 48%. For the same compound, the “Isolates at MIC either 0.25 mg/L or 0.5 mg/L” value (MSSA) was 99%, the “DRC-assessed SAB relapses” value [1] was 1.1% and the “Overall success rate in patients with high vancomycin MICs of 2-8 mg/L” value [1] was 87.5%. The “Adjusted difference ceftobiprole − daptomycin ± aztreonam (95% CI): DRC overall success at PTE (CE)” value ([1]; CE, Cochran-Mantel-Haenszel adjusted) was 0.6% (−8.3. 9.5), the “Overall success at the PTE visits, patients with MRSA of USA clonal strain type” value ([1]; MRSA isolates typed by MLST, spa and SCCmec, 16/21 vs 16/23) was 76.2% and the “Investigator-assessed overall success at the PTE visit” value ([1]; mITT) was 73.5%. For the same compound, the “Patients who died through the PTE visit” value ([1]; mITT) was 9.0%, the “Patients who experienced new metastatic foci or other complications of SAB after Day 7” value ([1]; mITT) was 5.8% and the “Patients with microbiological eradication at the PTE visit” value ([1]; mITT) was 82.0%. The “Adjusted proportion difference: investigator-assessed overall success at PTE” value ([1]; mITT, 95% CI: −4.2, 13.5) was 4.7%, the “Responders (overall success at the PTE visit)” value ([1]; mITT, 70 days post-randomization) was 69.8% and the “Adjusted difference ceftobiprole − daptomycin ± aztreonam (95% CI): ACM through PTE” value [1, 5] was −0.5% (−6.2, 5.2). The “Adjusted difference ceftobiprole − daptomycin ± aztreonam (95% CI): death due to SAB (DRC)” value [1, 5] was 0.4% (−3.2, 4.0), the “Adjusted difference ceftobiprole − daptomycin ± aztreonam (95% CI): microbiological response at PTE” value [1, 5] was 5.1% (−2.9, 13.0) and the “Adjusted difference ceftobiprole − daptomycin ± aztreonam (95% CI): new metastatic foci or other complications of SAB after Day 7” value [1, 5] was 0.1% (−4.6, 4.8). For the same compound, the “Adjusted difference ceftobiprole − daptomycin ± aztreonam (95% CI): ACM through PTE” value [1, 6] was −0.5%, the “Adjusted difference ceftobiprole − daptomycin ± aztreonam (95% CI): microbiological response at PTE” value [1, 6] was 5.1% and the “Adjusted difference ceftobiprole − daptomycin ± aztreonam (95% CI): new metastatic foci or other complications of SAB after Day 7” value [1, 6] was 0.1%. For the same compound, the “Adjusted difference ceftobiprole − daptomycin ± aztreonam (95% CI): DRC overall success at PTE (mITT)” value ([1]; mITT) was 2.0% (−7.1, 11.1), the “Adjusted difference ceftobiprole − daptomycin ± aztreonam (95% CI): DRC overall success at PTE (mITT)” value ([1]; mITT, listed as ceftobiprole) was 2.0% and the “Median time (days) clearance (95% CI)” value ([1]; mITT, MRSA) was 5 days. The “Patients with clearance achieved” value ([1]; mITT, MRSA) was 93.3%, the “Median time (days) clearance (95% CI)” value ([1]; mITT, MSSA) was 3 days and the “Patients with clearance achieved” value ([1]; mITT, MSSA) was 94.3%. For the same compound, the “Median time (days) clearance (95% CI)” value ([1]; mITT, S. aureus (overall)) was 4 days, the “Patients with clearance achieved” value [1, 7] was 94.2% and the “Time (days) to S. aureus bloodstream clearance, Median (95% CI)” value ([1]; mITT, Table 1) was 4 (3, 5) days. The “Non-inferiority for overall success at PTE (70 days post-randomization)” value ([1]; mITT) was “non-inferiority of ceftobiprole”, the “Non-inferiority for overall success at PTE (70 days post-randomization)” value ([1]; mITT, listed as ceftobiprole) was “non-inferiority of ceftobiprole to daptomycin±aztreonam; also recorded: non-inferior to daptomycin” and the “Response rate (primary endpoint), non-white patients” value ([1]; subgroup analysis, 5/10 vs 5/6) was 50.0%. The “Response rate (primary endpoint), age group of 18-34 years” value ([1]; subgroup analysis, 17/20 vs 11/19) was 85.0%, the “AE anemia, patients” value ([2]; human, in vivo) was 11.0% and the “AE gamma-glutamyl-transferase increased, patients” value ([2]; human, in vivo) was 6.3%. For the same compound, the “AE nausea, patients” value ([2]; human, in vivo) was 10.5%, the “Adverse events leading to discontinuation” value ([2]; human, in vivo) was 9.4% and the “Drug-related AEs leading to discontinuation” value ([2]; human, in vivo) was 4.7%. The “Drug-related AEs leading to discontinuation: allergy-type events” value ([2]; human, in vivo) was 4 n, the “Drug-related AEs leading to discontinuation: hepatic function test abnormalities” value ([2]; human, in vivo) was 1 n and the “Drug-related AEs leading to discontinuation: leukopenia” value ([2]; human, in vivo) was 1 n. The “Drug-related AEs leading to discontinuation: nausea/vomiting” value ([2]; human, in vivo) was 4 n, the “Drug-related AEs leading to discontinuation: seizure” value ([2]; human, in vivo) was 1 n and the “Patients who experienced a serious adverse event (SAE)” value ([2]; human, in vivo) was 18,8%. The “Patients who experienced a severe AE” value ([2]; human, in vivo) was 15.2%, the “Patients who experienced an AE” value ([2]; human, in vivo) was 63.4% and the “Study treatment discontinuation, reason non-related AE” value ([2]; human, in vivo) was 3.2%. The “Study treatment discontinuation, reason related AE” value ([2]; human, in vivo) was 4.8%, the “Study-drug-related AEs” value ([2]; human, in vivo) was 13.1% and the “Study discontinuation, reason death” value ([2]; mITT population) was 9.0%. For the same compound, the “Study treatment discontinuation, reason death” value ([2]; mITT population) was 4.8%, the Risk of convulsions [3] was “potential for an increased risk of convulsions” and the “Early clinical response and investigator-assessed clinical success vs vancomycin and aztreonam” value [4] was “non-inferior to vancomycin and aztreonam”.
For `CCCCCCCCCC(=O)N[C@@H](Cc1c[nH]c2ccccc12)C(=O)N[C@H](CC(N)=O)C(=O)N[C@@H](CC(=O)O)C(=O)N[C@@H]1C(=O)NCC(=O)N[C@@H](CCCN)C(=O)N[C@@H](CC(=O)O)C(=O)N[C@H](C)C(=O)N[C@@H](CC(=O)O)C(=O)NCC(=O)N[C@H](CO)C(=O)N[C@@H]([C@H](C)CC(=O)O)C(=O)N[C@@H](CC(=O)c2ccccc2N)C(=O)O[C@@H]1C` [Daptomycin, reference compound], the “On-treatment increases in MICs by ≥four-fold, patients” value (S. aureus) was 1.5%, the “Isolates at MIC 0.25 mg/L” value (MRSA) was 22% and the “Isolates at MIC 0.5 mg/L” value (MRSA) was 76%. For the same compound, the “Isolates at MIC 1 mg/L” value (MRSA) was 2%, the “Isolates at MIC 0.25 mg/L” value (MSSA) was 28% and the “Isolates at MIC 0.5 mg/L” value (MSSA) was 71%. The “Isolates at MIC either 0.25 mg/L or 0.5 mg/L” value (MSSA) was 99%, the “DRC-assessed SAB relapses” value [1] was 3.0% and the “Overall success rate in patients with high vancomycin MICs of 2-8 mg/L” value [1] was 50.0%. The “Median time (days) clearance (95% CI)” value ([1]; mITT, MRSA) was 5 days, the “Patients with clearance achieved” value ([1]; mITT, MRSA) was 87.8% and the “Median time (days) clearance (95% CI)” value ([1]; mITT, MSSA) was 4 days. For the same compound, the “Patients with clearance achieved” value ([1]; mITT, MSSA) was 95.2%, the “Median time (days) clearance (95% CI)” value ([1]; mITT, S. aureus (overall)) was 4 days and the “Patients with clearance achieved” value [1, 7] was 92.9%. The “Drug-related AEs leading to discontinuation: cosinophilic pneumonia” value ([2]; Safety population) was 2 n, the “Drug-related AEs leading to discontinuation: myopathy” value ([2]; Safety population) was 1 n and the “Tolerability / safety in patients with complicated SAB” value ([2]; in vivo) was “well tolerated”.
